We go through one compound from ChEMBL document CHEMBL1212695, “An allosteric potentiator of M4 mAChR modulates hippocampal synaptic transmission” (Nat Chem Biol, 2008).

Active and inactive are the calls of the source. No cut-off for these calls is given here.

A short description of assay [1]: Agonist activity at muscarinic receptor in M4 receptor knock out mouse hippocampal CA1 pyramidal neuron assessed as reduction of excitatory postsynaptic current amplitude at 2 uM by whole-cell electrophysiology relative to control. To be noted: Hippocampus. The format is functional.
Assay [2] is described as follows: Agonist activity at muscarinic receptor in M4 receptor knock out mouse hippocampal CA1 pyramidal neuron assessed as reduction of excitatory postsynaptic current amplitude at 5 uM by whole-cell electrophysiology in presence of carbachol relative to control. It counts as functional. To be noted: Hippocampus.
Assay [3] deals with T1, Muscarinic acetylcholine receptor M5 (Rattus norvegicus) (UniProt P08911).
T1 sequence (whole entry): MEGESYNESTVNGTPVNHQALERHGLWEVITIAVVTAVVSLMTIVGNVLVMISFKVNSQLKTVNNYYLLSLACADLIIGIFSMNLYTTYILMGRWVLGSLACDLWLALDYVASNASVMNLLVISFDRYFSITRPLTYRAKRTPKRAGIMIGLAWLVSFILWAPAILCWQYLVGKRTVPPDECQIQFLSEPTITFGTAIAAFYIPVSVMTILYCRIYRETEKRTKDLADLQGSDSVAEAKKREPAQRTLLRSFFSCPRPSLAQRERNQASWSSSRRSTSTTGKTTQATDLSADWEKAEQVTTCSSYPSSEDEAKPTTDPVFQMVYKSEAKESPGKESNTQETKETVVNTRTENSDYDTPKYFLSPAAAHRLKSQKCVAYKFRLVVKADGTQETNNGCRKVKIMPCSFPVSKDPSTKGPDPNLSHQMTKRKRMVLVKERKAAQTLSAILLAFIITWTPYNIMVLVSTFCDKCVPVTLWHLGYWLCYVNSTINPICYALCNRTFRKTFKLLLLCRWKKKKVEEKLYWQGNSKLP
Nature of the assay: Allosteric activation of rat recombinant muscarinic M5 receptor expressed in CHO cells assessed as potentiation of acetylcholine-induced calcium mobilization at 10 uM after 1 hr by fluorescence assay. It counts as functional, cell-based. (A change in cytosolic calcium serves as a functional read-out for many receptors and channels.)

Assay [4] deals with CHO. Nature of the assay: Agonist activity at P2Y1 receptor in CHO cells assessed as induction of calcium mobilization at 10 uM after 1 hr by fluorescence assay. It counts as functional, cell-based. The note with it: Cricetulus griseus.
Assay [5] concerns CHO. Nature of the assay: Allosteric activation at P2Y1 receptor in CHO cells assessed as potentiation of acetylcholine-induced calcium mobilization at 10 uM after 1 hr by fluorescence assay. It counts as cell-based. To be noted: Cricetulus griseus.
For assay [6], the target named is T1, Muscarinic acetylcholine receptor M5 (Rattus norvegicus). Nature of the assay: Agonist activity at rat recombinant muscarinic M5 receptor expressed in CHO cells assessed as induction of calcium mobilization at 10 uM after 1 hr by fluorescence assay. The format is functional, cell-based.
For assay [7] the target is unchanged. Nature of the assay: Antagonist activity at rat recombinant muscarinic M5 receptor expressed in CHO cells assessed as calcium mobilization at 10 uM after 1 hr by fluorescence assay. It counts as functional, cell-based.
Assay [8] deals with T2, Muscarinic acetylcholine receptor M4 (Rattus norvegicus) (UniProt P08485).
T2 sequence (whole entry): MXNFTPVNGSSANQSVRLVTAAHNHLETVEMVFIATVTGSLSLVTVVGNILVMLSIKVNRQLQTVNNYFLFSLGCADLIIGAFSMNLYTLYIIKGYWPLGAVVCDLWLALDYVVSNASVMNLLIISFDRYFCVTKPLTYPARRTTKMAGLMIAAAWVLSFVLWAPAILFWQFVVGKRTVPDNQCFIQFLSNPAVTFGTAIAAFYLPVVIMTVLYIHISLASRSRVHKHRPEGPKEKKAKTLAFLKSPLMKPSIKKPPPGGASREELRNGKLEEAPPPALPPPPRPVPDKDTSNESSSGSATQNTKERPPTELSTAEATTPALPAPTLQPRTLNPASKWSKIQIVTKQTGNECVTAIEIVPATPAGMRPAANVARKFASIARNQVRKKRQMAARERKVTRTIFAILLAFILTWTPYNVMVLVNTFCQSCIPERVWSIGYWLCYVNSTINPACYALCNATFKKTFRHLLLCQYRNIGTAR
The assay can be described thus: Agonist activity at muscarinic M4 receptor in Sprague-Dawley rat hippocampal CA1 pyramidal neuron assessed as reduction of excitatory postsynaptic current at 100 uM by whole-cell electrophysiology relative to control. The format is functional, tissue-based. The note with it: Hippocampus.

Assay [9] deals with T3, Muscarinic acetylcholine receptor M4 (Mus musculus) (UniProt P32211).
T3 sequence (whole entry): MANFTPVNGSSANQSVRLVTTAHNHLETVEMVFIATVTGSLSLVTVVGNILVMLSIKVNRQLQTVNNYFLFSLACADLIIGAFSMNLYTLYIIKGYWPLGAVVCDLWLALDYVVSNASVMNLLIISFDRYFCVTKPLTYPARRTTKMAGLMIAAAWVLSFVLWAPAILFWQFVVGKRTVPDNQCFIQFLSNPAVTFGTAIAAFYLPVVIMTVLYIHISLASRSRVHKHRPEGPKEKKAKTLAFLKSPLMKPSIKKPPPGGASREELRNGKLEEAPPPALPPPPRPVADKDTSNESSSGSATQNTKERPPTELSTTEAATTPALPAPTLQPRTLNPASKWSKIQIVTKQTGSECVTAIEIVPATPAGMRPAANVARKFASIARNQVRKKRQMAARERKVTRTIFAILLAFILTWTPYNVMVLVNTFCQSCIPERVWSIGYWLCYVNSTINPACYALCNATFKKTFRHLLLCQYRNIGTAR
The assay can be described thus: Agonist activity at muscarinic M4 receptor in wild type mouse hippocampal CA1 pyramidal neuron assessed as reduction of excitatory postsynaptic current at 2 uM by whole-cell electrophysiology relative to control. The format is functional, tissue-based. To be noted: Hippocampus.

Assay [10] addresses T3, Muscarinic acetylcholine receptor M4 (Mus musculus). Nature of the assay: Agonist activity at muscarinic M4 receptor in wild type mouse hippocampal CA1 pyramidal neuron assessed as excitatory postsynaptic current amplitude at 5 uM by whole-cell electrophysiology relative to control. The format is functional, tissue-based. To be noted: Hippocampus.

On to `Cc1cc(C)c2c(N)c(C(=O)NCc3ccc(Cl)cc3)sc2n1`, for which the inhibition at 2 µM in assay [1] is 70.8%. Also, in [2], the inhibition at 5 µM was determined as 77.5%. Further, the result in [3], in assay [4], in assay [5], in assay [6] and in assay [7] was inactive. The inhibition in assay [8] was 16.1%; in [9], 53.7%. Besides, in assay [10], the Activity is 102%.

A word on the inhibition: it is the change of the read-out against control, counted positive when it falls.
